Assay results: paper PMC10410819, “Potential antihypertensive activity of novel peptides from green basil leaves” (BMC Complementary Medicine and Therapies, 2023)
Residues, ends and D or L forms follow the SMILES beside them. No end group written: not given here.

Tests used:
[1] = test system: L-NAME-treated male Wistar rats; assay: Organ weights of L-NAME-treated rats; type: in vivo, rat; details: vs NC group; after 3 weeks treatment
Protocol: (§1) After 1 week of acclimation, 25 male Wistar rats were separated randomly into two groups of control rat (NC; n = 5) with distilled water and L-NAME-treated rat (n = 20). At this step, distilled water was orally gavaged to NC rat at 1 mL/100 g BW. L-NAME at a final concentration of 40 mg/kg BW in 1 mL distilled water was orally gavage to induce hypertension in rat at a dose of 40 mg/kg BW for 3 weeks. Thereafter, L-NAME treated rats were randomly classified into the following four groups: L-NAME untreated rat (HT; n = 5); L-NAME + lisinopril rat (HTD; n = 5); L-NAME + peptide 1 at 30 mg/kg rat (HTP1; n = 5); and L-NAME + peptide 2 at 30 mg/kg rat (HTP2; n = 5); for the remaining 3 weeks. NC (n = 5) was still orally gavaged with distilled water. The peptides were diluted in distilled water to obtain a final concentration of 30 mg/1 mL and immediately gavaged to rat at a dose of 30 mg/kg BW/day). Lisinopril was diluted in distilled water to obtain a final concentration of 10 mg/1 mL and immediately orally gavaged to rat at a dose of 10 mg/kg BW/day. At the end of the experiment, each rat was fasted for approximately 12–16 h and euthanized with CO2 inhalation. […] The separated serum was collected and preserved at − 80 °C until further analysis. Then, the liver, heart, spleen, and kidneys were collected, trimmed, washed with normal saline, wiped with filter paper, and weighed.

[2] = target: T1, ACE (Homo sapiens, UniProt P12821); assay: ACE inhibitory activity assay kit; type: biochemical; details: synthetic peptides; captopril positive control; read-out: IC50 ACE inhibition
T1 construct: purchased Dojindo Molecular Technology Inc., Kumamoto, Japan
Protocol: ACE inhibitory activity assay kit (Dojindo Molecular Technology Inc., Kumamoto, Japan) was used for the measurement of ACE inhibition in proteins derived from basil leaves before and after digestion according to the company manual. Briefly, 10 µl of each sample, substrate buffer, and enzyme mixture were mixed and incubated in 96-well plate at 37 °C for 1 h before measuring ACE inhibition at 450 nm of absorption (A). The ACE inhibitory activity was calculated and calculated as follows: inhibitory activity (%) = [(Awithout sample − Awith sample)/(Awithout sample − Ablank)] × 100.

[3] = test system: L-NAME-treated male Wistar rats; assay: Serum lipid profile, glucose, kidney and liver function and ORAC in L-NAME-treated rats; type: in vivo, rat; details: mean, 3 weeks oral gavage, lisinopril 10 mg/kg BW/day, peptides 30 mg/kg BW/day, n = 5
Protocol: as §1
One thousand microlite of serum was used for measuring the lipid profiles, including total cholesterol, triglyceride (TG), low-density lipoprotein (LDL)-cholesterol (C), high-density lipoprotein (HDL)-C, glucose levels, kidney (blood urea nitrogen and creatinine concentrations) and liver function [alanine aminotransaminase (ALT), aspartate transaminase (AST), and alkaline phosphatase ([…])] parameters using the Cobas 6800/8800 systems (Roche Group, Switzerland). ORAC in rat serum was measured with a fluorescent microplate reader at Ex/Em = 480/520 nm, as previously mentioned.

[4] = target: Angiotensin-converting enzyme (UniProt P12821)
[5] = test system: L-NAME-treated male Wistar rats; assay: Body weight of L-NAME-treated rats; type: in vivo, rat; details: vs L-NAME-treated rats; 3 weeks treatment
Protocol: as §1

[6] = test system: L-NAME-treated male Wistar rats; assay: Platelet count and white blood cell levels of L-NAME-treated rats; type: in vivo, rat; details: effect of treatment in the L-NAME treated group; 3 weeks
Protocol: as §1

[7] = test system: L-NAME-treated male Wistar rats; assay: Serum nitrite/nitrate in L-NAME-treated rats; type: in vivo, rat; details: mean ± standard error; 3 weeks oral gavage; lisinopril 10 mg/kg, peptide 30 mg/kg BW/day
Protocol: as §1
(§2) The levels of nitrite and nitrate, which are metabolites of nitric oxide (NO), were measured using 50 µl of rat serum utilizing the calorimetric method (Nitrite/nitrate Kit, Sigma-Aldrich, 2 Science Park Dr, SG), according to company protocol. Angiotensin II peptide levels were quantified by using EIA kits (Angiotensin II EIA, Sigma-Aldrich, MO, USA), as per the manufacturer’s instructions).

[8] = test system: L-NAME-treated male Wistar rats; assay: Serum angiotensin II peptide (EIA) in L-NAME-treated rats; type: in vivo, rat; details: median (interquartile range); 3 weeks oral gavage; lisinopril 10 mg/kg, peptides 30 mg/kg BW/day
Protocol: After 1 week of acclimation, 25 male Wistar rats were separated randomly into two groups of control rat (NC; n = 5) with distilled water and L-NAME-treated rat (n = 20). At this step, distilled water was orally gavaged to NC rat at 1 mL/100 g BW. L-NAME at a final concentration of 40 mg/kg BW in 1 mL distilled water was orally gavage to induce hypertension in rat at a dose of 40 mg/kg BW for 3 weeks. Thereafter, L-NAME treated rats were randomly classified into the following four groups: L-NAME untreated rat (HT; n = 5); L-NAME + lisinopril rat (HTD; n = 5); L-NAME + peptide 1 at 30 mg/kg rat (HTP1; n = 5); and L-NAME + peptide 2 at 30 mg/kg rat (HTP2; n = 5); for the remaining 3 weeks. NC (n = 5) was still orally gavaged with distilled water. The peptides were diluted in distilled water to obtain a final concentration of 30 mg/1 mL and immediately gavaged to rat at a dose of 30 mg/kg BW/day). […]
as §2

T1 sequence (P12821 30-1306, species assumed): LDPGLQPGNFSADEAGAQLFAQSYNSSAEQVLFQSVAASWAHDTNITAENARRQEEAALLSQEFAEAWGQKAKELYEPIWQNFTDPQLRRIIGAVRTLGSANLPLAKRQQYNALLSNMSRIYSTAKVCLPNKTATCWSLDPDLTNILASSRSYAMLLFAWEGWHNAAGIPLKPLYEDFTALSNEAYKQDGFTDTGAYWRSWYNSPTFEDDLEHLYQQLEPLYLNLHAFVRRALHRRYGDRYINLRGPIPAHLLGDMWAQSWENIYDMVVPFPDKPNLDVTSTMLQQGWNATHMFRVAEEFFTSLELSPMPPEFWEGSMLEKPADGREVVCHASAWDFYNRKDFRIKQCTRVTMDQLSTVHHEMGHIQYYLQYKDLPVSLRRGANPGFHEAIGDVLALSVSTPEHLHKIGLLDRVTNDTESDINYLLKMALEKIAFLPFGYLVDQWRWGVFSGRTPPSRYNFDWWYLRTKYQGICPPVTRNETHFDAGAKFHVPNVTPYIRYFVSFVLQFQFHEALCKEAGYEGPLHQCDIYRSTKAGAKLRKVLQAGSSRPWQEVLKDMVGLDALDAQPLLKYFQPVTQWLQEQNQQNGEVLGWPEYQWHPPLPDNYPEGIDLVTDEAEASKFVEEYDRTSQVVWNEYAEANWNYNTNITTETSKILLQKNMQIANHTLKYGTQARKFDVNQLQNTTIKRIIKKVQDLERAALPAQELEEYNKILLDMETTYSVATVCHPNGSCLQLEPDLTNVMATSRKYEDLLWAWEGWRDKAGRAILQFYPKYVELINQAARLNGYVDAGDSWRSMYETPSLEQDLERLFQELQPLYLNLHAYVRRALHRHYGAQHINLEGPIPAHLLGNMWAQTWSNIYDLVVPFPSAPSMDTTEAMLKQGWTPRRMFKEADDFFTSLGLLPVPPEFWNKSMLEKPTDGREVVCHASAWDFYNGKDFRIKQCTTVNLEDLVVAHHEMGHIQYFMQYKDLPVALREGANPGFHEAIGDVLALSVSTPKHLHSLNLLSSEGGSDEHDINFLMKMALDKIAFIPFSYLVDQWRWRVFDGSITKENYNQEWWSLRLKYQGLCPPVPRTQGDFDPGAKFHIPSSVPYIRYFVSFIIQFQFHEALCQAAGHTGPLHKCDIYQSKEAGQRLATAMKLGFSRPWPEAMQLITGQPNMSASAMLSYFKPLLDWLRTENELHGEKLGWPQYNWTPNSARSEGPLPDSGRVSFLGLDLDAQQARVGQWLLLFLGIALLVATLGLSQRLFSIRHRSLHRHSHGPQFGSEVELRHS
Angiotensin-converting enzyme, sequence (P12821 30-1256): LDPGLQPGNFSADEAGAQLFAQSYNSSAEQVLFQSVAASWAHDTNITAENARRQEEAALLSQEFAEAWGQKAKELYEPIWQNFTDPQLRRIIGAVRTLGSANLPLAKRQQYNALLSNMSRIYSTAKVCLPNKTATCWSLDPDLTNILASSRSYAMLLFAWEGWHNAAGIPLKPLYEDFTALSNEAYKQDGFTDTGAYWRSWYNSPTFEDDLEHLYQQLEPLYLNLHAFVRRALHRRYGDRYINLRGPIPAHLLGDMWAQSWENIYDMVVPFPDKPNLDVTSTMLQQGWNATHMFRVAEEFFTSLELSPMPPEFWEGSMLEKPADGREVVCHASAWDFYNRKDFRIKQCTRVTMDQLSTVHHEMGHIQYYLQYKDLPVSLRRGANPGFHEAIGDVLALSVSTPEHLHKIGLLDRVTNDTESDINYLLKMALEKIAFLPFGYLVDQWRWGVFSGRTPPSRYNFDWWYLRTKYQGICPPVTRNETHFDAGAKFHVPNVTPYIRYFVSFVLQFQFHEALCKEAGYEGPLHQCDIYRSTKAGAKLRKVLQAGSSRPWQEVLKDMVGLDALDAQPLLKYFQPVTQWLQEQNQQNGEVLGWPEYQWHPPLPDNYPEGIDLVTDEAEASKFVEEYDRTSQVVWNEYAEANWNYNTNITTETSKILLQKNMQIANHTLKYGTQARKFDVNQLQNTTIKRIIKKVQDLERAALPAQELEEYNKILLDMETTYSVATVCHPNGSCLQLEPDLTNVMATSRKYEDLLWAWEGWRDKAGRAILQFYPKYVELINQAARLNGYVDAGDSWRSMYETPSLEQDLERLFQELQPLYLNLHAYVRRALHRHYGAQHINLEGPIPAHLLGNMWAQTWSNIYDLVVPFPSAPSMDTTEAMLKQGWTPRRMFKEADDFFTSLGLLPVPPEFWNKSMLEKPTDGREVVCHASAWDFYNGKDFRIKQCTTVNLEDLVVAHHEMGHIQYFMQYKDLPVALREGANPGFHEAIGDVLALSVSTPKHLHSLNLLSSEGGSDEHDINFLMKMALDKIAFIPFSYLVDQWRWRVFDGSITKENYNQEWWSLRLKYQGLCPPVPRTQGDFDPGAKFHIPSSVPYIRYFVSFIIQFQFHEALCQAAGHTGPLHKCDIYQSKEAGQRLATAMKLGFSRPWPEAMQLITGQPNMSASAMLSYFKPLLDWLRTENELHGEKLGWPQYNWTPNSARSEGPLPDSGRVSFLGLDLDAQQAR

With DLSSAP [Asp-Leu-Ser-Ser-Ala-Pro] the “weight of the livers” value [1] was “significantly lower”, the IC50 [2] was 4.75 µM and the ALP ([3]; serum) was 135.00 U/L. The ALT ([3]; serum) was 31.50 U/L, the AST ([3]; serum) was 67.00 U/L and the BUN ([3]; serum) was 19.70 mg/dL.

For “PTTKTNVPPHF [Pro-Thr-Thr-Lys-Thr-Asn-Val-Pro-Pro-His-Phe]”, the IC50 [2] was 119 µM.

For `N[C@@H](Cc1ccc(O)cc1)C(=O)N[C@@H](CO)C(=O)N[C@@H](Cc1ccccc1)C(=O)O` [Tyr-Ser-Phe] (H-Tyr-Ser-Phe-OH; N-terminus and C-terminus assumed), the IC50 [2] was 44.2 µM.

Work on “HCGDGDAPY [His-Cys-Gly-Asp-Gly-Asp-Ala-Pro-Tyr]” yielded an IC50 [2] of 103 µM.

Work on “LDSKHEAP [Leu-Asp-Ser-Lys-His-Glu-Ala-Pro]” yielded an IC50 [2] of 121 µM.

For Tyr-Ser-Phe (peptide), the IC50 (µM) ACE inhibition (ACE inhibitory activity assay kit, absorbance at 450 nM) [4] was 44.2 µM.

“EGSGKGVR [Glu-Gly-Ser-Gly-Lys-Gly-Val-Arg]” showed an IC50 [2] of 87.2 µM.

`NCCCC[C@H](N[C@@H](CCc1ccccc1)C(=O)O)C(=O)N1CCC[C@H]1C(=O)O` [Lisinopril] was tested, and the “weight of the livers” value [1] was “significantly lower”, the “effect on rat BWs” value [5] was “not significantly affected” and the “platelet count and white blood cell levels” value [6] was “did not affect”. For the same molecule, the “serum concentration of nitrate” value [7] was 15.05 ± 1.95 ng/µL, the “serum concentration of nitrite” value [7] was 16.17 ± 2.99 ng/µL and the “serum concentration of total nitrate and nitrite (NOx)” value [7] was 31.22 ± 4.94 ng/µL. For the same molecule, the “serum concentration of AGE II” value [8] was 5.19 (4.82) pg/mL, the ORAC ([3]; rat serum) was 0.19 µmol TE/dl and the Cho/HDL ([3]; serum ratio) was 2.69. For the same molecule, the LDL/HDL ([3]; serum ratio) was 0.22, the ALP ([3]; serum) was 129.75 U/L and the ALT ([3]; serum) was 41.50 U/L. For the same molecule, the AST ([3]; serum) was 67.75 U/L, the BUN ([3]; serum) was 19.83 mg/dL and the Chol ([3]; serum) was 86.25 mg/dL. The Glucose ([3]; serum) was 263.00 mg/dL, the HDL ([3]; serum) was 32.00 mg/dL and the LDL ([3]; serum) was 7.00 mg/dL. For the same molecule, the Tri ([3]; serum) was 179.25 mg/dL and the VLDL ([3]; serum) was 35.75 mg/dL.

In the case of HVLSA [His-Val-Leu-Ser-Ala], the IC50 [2] is reported as 10 µM.

In the case of DSVSASP [Asp-Ser-Val-Ser-Ala-Ser-Pro], the “weight of the livers” value [1] is reported as “significantly lower”, the IC50 [2] is reported as 117 µM and the ALP ([3]; serum) is reported as 159.00 U/L. It also gave an ALT ([3]; serum) of 38.50 U/L, an AST ([3]; serum) of 74.00 U/L and a BUN ([3]; serum) of 20.33 mg/dL.

Molecule EGSGKGVR [Glu-Gly-Ser-Gly-Lys-Gly-Val-Arg] has an IC50 (µM) ACE inhibition (ACE inhibitory activity assay kit, absorbance at 450 nM) [4] of 87.2 µM.

DLSSAP [Asp-Leu-Ser-Ser-Ala-Pro] was tested, and the IC50 (µM) ACE inhibition (ACE inhibitory activity assay kit, absorbance at 450 nM) [4] was 4.75 µM.

Molecule LDSKHEAP [Leu-Asp-Ser-Lys-His-Glu-Ala-Pro] has an IC50 (µM) ACE inhibition (ACE inhibitory activity assay kit, absorbance at 450 nM) [4] of 121 µM.

In the case of HCGDGDAPY [His-Cys-Gly-Asp-Gly-Asp-Ala-Pro-Tyr], the IC50 (µM) ACE inhibition (ACE inhibitory activity assay kit, absorbance at 450 nM) [4] is reported as 103 µM.

Work on HVLSA [His-Val-Leu-Ser-Ala] yielded an IC50 (µM) ACE inhibition (ACE inhibitory activity assay kit, absorbance at 450 nM) [4] of 10 µM.

With PTTKTNVPPHF [Pro-Thr-Thr-Lys-Thr-Asn-Val-Pro-Pro-His-Phe] the IC50 (µM) ACE inhibition (ACE inhibitory activity assay kit, absorbance at 450 nM) [4] was 119 µM.

DSVSASP [Asp-Ser-Val-Ser-Ala-Ser-Pro] was tested, and the IC50 (µM) ACE inhibition (ACE inhibitory activity assay kit, absorbance at 450 nM) [4] was 117 µM.
